Earlier results, collected in article PMC4207555 (Drug Design, Development and Therapy, 2014).
Like-named read-outs stand apart in the source and are kept apart here.

What was measured:
microtubules = conditions: read-out: stabilization of microtubules against cold-induced depolymerization (concentration producing 50% cell killing)
[1] = tested on: P-glycoprotein-expressing cell lines bearing acquired resistance; conditions: range across P-glycoprotein-expressing cell lines
[2] = tested on: cell lines with resistance mechanisms other than P-glycoprotein overexpression
[3] = ref Sanofi, data on file, 2010
[4] = not given; remark: listed apart in the source
[5] = rats, ref Sanofi, data on file, 2010
[6] = dogs, ref Sanofi, data on file, 2010
plasma protein [7] = conditions: mice; ref Sanofi, data on file, 2010
plasma protein [8] = conditions: rats; ref Sanofi, data on file, 2010
plasma protein [9] = conditions: rabbits; ref Sanofi, data on file, 2010
plasma protein [10] = conditions: dogs; ref Sanofi, data on file, 2010
plasma protein [11] = conditions: humans; ref Sanofi, data on file, 2010
[12] = mice
[13] = not given; remark: listed apart in the source
[14] = dogs
[15] = humans
B16/TXT melanoma = conditions: B16/TXT acquired-resistance model, no P-glycoprotein overexpression
Prostate DU 145 = conditions: DU145 xenograft
Breast Calc18/TXT = conditions: P-glycoprotein-overexpressing Calc18/TXT
Breast UISO BCA-1 = conditions: UISO BCA-1, dose level below HNTD (9.3 mg/kg per injection)
HID28 = conditions: HID28, 20 mg/kg
[16] = mice, ref Sanofi, data on file; for NOEL for central neurotoxicity / NOEL for peripheral neurotoxicity: 2010
[17] = rats, ref Sanofi, data on file
[18] = dogs; ref Sanofi, data on file, 2013
[19] = in situ brain perfusion, wild-type mice; ref 47 (unpublished data)
[20] = tested on: bacterial reverse mutation; conditions: ref Sanofi, data on file, 2010
[21] = ref Sanofi, data on file, 2010; remark: listed apart in the source
bone marrow = conditions: ref Sanofi, data on file, 2010
[22] = male or female rats; ref Sanofi, data on file, 2010
[23] = not given; remark: listed apart in the source
[24] = tested on: mCRPC that had progressed on previous docetaxel-based therapy
[25] = after IV administration; ref Sanofi, data on file, 2010
[26] = tested on: human intracranial glioblastoma xenograft; conditions: two models, respective HNTDs
[27] = tested on: pediatric sarcoma xenograft; conditions: five of six models
[28] = not given; remark: listed apart in the source
[29] = single-dose studies in mice, rats, and dogs; ref Sanofi, data on file, 2013
[30] = 0–48 hours, mice bearing subcutaneous MA16/C

For `CO[C@H]1C(=O)[C@]2(C)[C@@H](OC)C[C@H]3OC[C@@]3(OC(C)=O)[C@H]2[C@H](OC(=O)c2ccccc2)[C@]2(O)C[C@H](OC(=O)[C@H](O)[C@@H](NC(=O)OC(C)(C)C)c3ccccc3)C(C)=C1C2(C)C` [Cabazitaxel], the “lag time to 50% aggregation (reduction in lag time for tubulin assembly)” value (tubulin) is listed as 0 to 0.1 µmol/L, the IC50 (microtubules) is listed as 100 to 250 nM and the Resistance factors [1] is listed as 2–10. For the same compound, the cross-resistance [2] was “no cross-resistance”, the logP was 3.9 and the “volume of distribution at steady state” value ([3]; healthy mice, single IV administration) was 2.5 to 3.7 L/kg. The Plasma clearance ([3]; normal mice, single IV infusion) was 15 to 18.3 mL/min/kg, the terminal half-life ([3]; normal mice) was 5.1 to 7.6 h and the “overall brain exposure relative to plasma” value [4, 30] was 3.7 fold. The “overall brain exposure relative to tumor tissue” value [4, 30] was 2.3 fold, the “time to maximum drug concentrations in tumor tissue” value ([4]; MA16/C-bearing mice, 40 mg/kg) was no more than 15 min and the “concentration within the tumor versus plasma” value ([4]; after 48 hours, MA16/C-bearing mice, 40 mg/kg) was 40 fold. The “exposure in tumor compared with plasma” value ([4]; during the 48 hours following administration, 40 mg/kg) was 1.6 times, the “exposure in tumor compared with plasma” value ([4]; entire experimental period (168 hours), 40 mg/kg) was 2.9 times and the “volume of distribution at steady state” value ([4]; tumor-bearing mice, single IV administration, ref Sanofi, data on file, 2010) was 8.8 L/kg. The Plasma clearance ([4]; tumor-bearing mice, single IV infusion, ref Sanofi, data on file, 2010) was 28.3 mL/min/kg, the terminal half-life ([4]; tumor-bearing mice, ref Sanofi, data on file, 2010) was 26 h and the “volume of distribution at steady state” value ([5]; single IV administration) was 22.7 L/kg. The Plasma clearance ([5]; single IV infusion) was 80 mL/min/kg, the terminal half-life [5] was 10 h and the “volume of distribution at steady state” value ([6]; single IV administration) was 3.3 to 14.5 L/kg. The Plasma clearance ([6]; single IV infusion) was 41.7 to 88.3 mL/min/kg, the terminal half-life [6] was 3.0 to 4.3 h and the Plasma protein binding (plasma protein [7]) was 99.3%. For the same compound, the Plasma protein binding (plasma protein [8]) was 95.5%, the Plasma protein binding (plasma protein [9]) was 91.4% and the Plasma protein binding (plasma protein [10]) was 97.1%. The Plasma protein binding (plasma protein [11]) was 91.9%, the “pathway C (t-butyl-hydroxylation on the lateral chain), share of the dose” value [12] was 41% and the “two O-demethylation pathways (A and B), share of the dose excreted” value (“two O-demethylation pathways (A and B)” for short) [12] was 45%. The “radioactivity excreted via the biliary route, % of the administered dose” value ([13]; bile-duct-cannulated male rats, within 48 hours) was 65%, the “pathway C (t-butyl-hydroxylation on the lateral chain), share of the dose excreted” value ([13]; male and female rats) was 49%–55 and the “two O-demethylation pathways (A and B)” value [14] was 54%. For the same compound, the “pathway C (t-butyl-hydroxylation on the lateral chain), share of the dose” value [15] was 21%, the “two O-demethylation pathways (A and B)” value [15] was 40% and the antitumor activity (B16/TXT melanoma) was “demonstrated antitumor activity”. For the same compound, the “complete tumor regressions (CR)” value (Prostate DU 145) was 100%, the “long-term tumor-free survival (TFS)” value (Prostate DU 145) was 83% and the antitumor activity (Breast Calc18/TXT) was “not active”. For the same compound, the log cell kill (Breast UISO BCA-1) was 4.4, the partial remissions (HID28) was “four out of ten” and the “percentage tumor volume change (treated/control mean tumor volume)” value (HID28; Day 35) was 1.4%. The “NOEL for central neurotoxicity” value ([16]; 5-day, 1 min infusion) was greater than 7 mg/kg/day, the “NOEL for peripheral neurotoxicity” value ([16]; 5-day, 1 min infusion) was 3 mg/kg/day and the “NOEL for central neurotoxicity” value ([16]; five-cycle, 1 hr infusion) was 10 mg/kg/day. The “NOEL for peripheral neurotoxicity” value ([16]; five-cycle, 1 hr infusion) was 5 mg/kg/day, the “NOEL for central neurotoxicity” value ([16]; single-dose, 1 min infusion) was 10 mg/kg/day and the “NOEL for peripheral neurotoxicity” value ([16]; single-dose, 1 min infusion) was 10 mg/kg/day. The “NOEL for central neurotoxicity” value ([16]; single-dose, 1 hr infusion) was 10 mg/kg/day, the “NOEL for central neurotoxicity” value ([16]; weekly, 1 min infusion) was 5 mg/kg/day and the “NOEL for peripheral neurotoxicity” value ([16]; weekly, 1 min infusion) was 5 mg/kg/day. The “HNLD as single dose” value [16]; 2013 was 30 mg/kg, the “NOEL for central neurotoxicity” value ([17]; single-dose, 1 min infusion, 2010) was greater than 10 mg/kg/day and the “NOEL for central neurotoxicity” value ([17]; ten-cycle, 1 hr infusion, 2010) was >10/20. The “NOEL for peripheral neurotoxicity” value ([17]; ten-cycle, 1 hr infusion, 2010) was less than 1 mg/kg/day, the “HNLD as single dose” value [17]; 2013 was 2.5 mg/kg and the “HNLD as single dose” value [18] was 0.5 mg/kg. For the same compound, the “uptake across the BBB, P-glycoprotein-deficient versus control mice” value (P-glycoprotein) was “threefold higher”, the “brain penetration versus paclitaxel or docetaxel” value [19] was “two- to threefold greater” and the “mutations in the bacterial reverse mutation (Ames) test” value [20] was “did not induce mutations”. For the same compound, the “in vitro chromosome aberration test” value [21] was “increased number of polyploid cells”, the “in vivo rat bone marrow micronucleus test” value (bone marrow) was “increase in micronuclei” and the “mating performance or fertility” value [22] was “did not affect”. For the same compound, the “population half-life, initial phase” value ([23]; 170 patients) was 4.4 min, the “population half-life, intermediate phase” value ([23]; 170 patients) was 1.6 h and the “population half-life, terminal phase” value ([23]; 170 patients) was 95.1 h. For the same compound, the “mean volume of distribution at steady state (population PK estimate)” value ([23]; median BSA 1.84 m^2) was 2,640 L/m^2, the “plasma clearance (population PK estimate)” value ([23]; median BSA 1.84 m^2) was 26.4 L/h/m^2 and the “grade ≥3 anemia, patients” value [24] was 11%. The “grade ≥3 diarrhea” value [24] was 6%, the “grade ≥3 leukopenia, patients” value [24] was 68% and the “grade ≥3 neutropenia, patients” value [24] was 82%. For the same compound, the “patients who died within 30 days of the last infusion” value [24] was 5%, the “patients with dose reduction” value [24] was 12% and the “patients with treatment delay” value [24] was 28%. For the same compound, the “peripheral neuropathy, patients” value [24] was 14%, the prostate-specific antigen response [24] was 39.2% and the “rate of objective tumor response” value [24] was 14.4%. The median overall survival ([24]; plus prednisone/prednisolone) was 15.1 months, the median progression-free survival ([24]; plus prednisone/prednisolone) was 2.8 months and the “grade 3 peripheral neuropathy, patients” value ([24]; three patients) was 1%. For the same compound, the “hazard ratio, death” value ([24]; versus mitoxantrone) was 0.70, the “hazard ratio, progression-free survival” value ([24]; versus mitoxantrone) was 0.74 and the “reduction in the risk of death” value ([24]; versus mitoxantrone) was 30%. For the same compound, the “effects in CNS, respiratory, gastrointestinal, renal, and cardiovascular systems” value [25] was “no physiologically relevant effects”, the “antitumor activity (increase in life span) versus docetaxel” value [26] was “enhanced antitumor activity compared with docetaxel” and the “tumor growth inhibition and tumor regression versus equivalent doses of docetaxel” value [27] was “significantly greater tumor growth inhibition and tumor regression”. For the same compound, the “pathway D (cleavage of the parent drug), share of the dose” value ([28]; all species including humans) was less than 0.3%, the “excretion via the urinary route” value ([28]; mice, rats, and dogs) was 1%–4 and the “excretion, % of the administered dose” value ([28]; mice, rats, and dogs) was 91%–95. The “radioactivity excreted in the feces, % of the administered dose” value ([28]; mice, rats, and dogs) was 87%–91, the “administered dose excreted unchanged” value ([28]; mice, rats, dogs, and humans) was “less than 2.5%” and the “highest non-lethal doses, times lower with cabazitaxel than with docetaxel” value [29] was 3- to 4 times.
